Test results as given in patent US7005274B1, “Methods and compositions for diagnosing and treating arthritic disorders and regulating bone mass” (MIGENIX Corp., priority 1999, dated 2006).

Columns and labels:
Type in all cases: cell-based, human
[1] = tested on: articular chondrocytes and TC28 cells; experiment: Intracellular ATP, statements covering both cell preparations; conditions: for depletion of intracellular ATP levels: 0.025 mM antimycin A or 0.02 μM oligomycin, administered every 24 hours for 72 hours; for intracellular ATP levels (qualitative): SIN-1 500 μM, NOC-12 250 μM, antimycin A and oligomycin concentration not stated; for effect on TGFβ-induced increase of intracellular ATP: antimycin A 0.025 mM or oligomycin 0.02 μM additionally present
Experimental: Levels of total cellular ATP were measured by a modification of luciferase-based assays known in the art (Lin et al., Anal. Biochem. 24:531–540, 1968); related assays and modifications may alternatively be used (see, e.g., Turman et al., In Vitro Cell. Dev. Biol. Anim. 32:1–4, 1996, for an assay format that uses a fluorescent plate reader). In brief, 2×10^6 cells were washed and pelleted in 10 ml phosphate-buffered saline (PBS). The cell pellets were snap-frozen in a dry ice/ethanol bath, after which […] of 0.2 M HCl was added, followed by 0.3 ml of 2 mM glycine (pH 9.0). Samples were heated at 100° C. for five minutes, then placed on ice. A standard curve was developed using 0 to 500 pmol of purified ATP (disodium salt). One hundred (100) μl of the cell extract, or purified ATP standard, was added to an equal volume of the ATP assay mixture (containing MgSO4, DTT, EDTA, luciferase and luciferin, all from the Sigma Bioluminescence Assay Kit and all diluted 1:25). Following a 5 second incubation and 15 second integration, samples were read on a TD-20/20 Luminometer (Turner Designs, Sunnyvale, Calif.).
In FIG. 1A, articular chondrocytes or TC28 cells (5×10^5) in 5 ml were studied in triplicate in the presence of antimycin (or oligomycin, see next Example) at the indicated concentrations, administered every 24 hours for a total of 72 hours, and total intracellular ATP concentrations were determined as described above. Viability determinations are shown in FIG. 1B, where 2×10^4 chondrocytes or TC28 cells in 0.2 ml were cultured in triplicate in the presence of antimycin (or oligomycin) at the indicated concentrations, administered every 24 hours for a total of 72 hours, and cell viability was determined by trypan blue dye exclusion (>200 cells counted for each replicate).

[2] = tested on: articular chondrocytes and TC28 cells; experiment: Cell viability by trypan blue dye exclusion; conditions: 0.025 mM antimycin A or 0.02 μM oligomycin, 72 hours
Experimental: Nonlethal but mitochondrial effective doses of antimycin A were determined as follows. Progressively higher concentrations of antimycin A (Sigma Chemical Co., St. Louis, Mo.) were added to cultured articular condrocytes and TC-28 cells. Cell proliferation was measured by incorporation of fluorogenic H33258 (Calbiochem, La Jolla, Calif.) essentially according to the manufacturer's instructions, and cell viability was assessed by trypan blue dye exclusion (Medzihradsky et al., Biochem. Med. 13:164–177, 1975), essentially according to the instructions of the manufacturer (Sigma).
The objective of these studies was to find, if possible, a level of antimycin A that depressed total cellular ATP levels without causing more than 10% loss of viability. In FIG. 1A, articular chondrocytes or TC28 cells (5×10^5) in 5 ml were studied in triplicate in the presence of antimycin (or oligomycin, see next Example) at the indicated concentrations, administered every 24 hours for a total of 72 hours, and total intracellular ATP concentrations were determined as described above. […]

[3] = tested on: articular chondrocytes and TC28 cells; experiment: Level of glycolysis; conditions: 0.025 mM antimycin A or 0.02 μM oligomycin
[4] = tested on: chondrocytes; experiment: Collagen synthesis, [3H]-proline labeling, collagenase-sensitive protein; conditions: 72 hours after addition; 0.025 mM antimycin A or non-lethal dose of oligomycin
Experimental: Collagen production was measured by tritiated proline ([^3H]-proline) biosynthetic protein labeling and measuring of collagenase-sensitive protein production (FIG. 2). Articular chondrocytres or TC28 cells (5×10^5 cells) were plated in 5 ml medium made 0.025 mM in antimycin A (or 0.02 μg/ml oligomycin, see next Example) by addition of the indicated agent every 24 hours. After the mitochondrial inhibitors were added, the cells were cultured for a further 48 hours. Medium was then removed and replaced with serum-free medium containing 5 μl/ml of [^3H]-proline, 50 μg/ml ascorbate and 100 μg/ml β-aminoproprionitrile, and incubation continued for an additional 8 hours.
Medium was then collected and precipitated with 15% trichloroacetic acid (TCA). Cells were extracted in 1 M NaCl, 1 mM N-ethylmaleimide, 0.2 mM phenylmethylsulfonyl fluoride, 0.75 mM EDTA and then precipitated with 15% TCA. The precipitates were washed 3 times with 5% TCA and once with 5% TCA containing 0.5% tannic acid. The pellet was dissolved and resuspended in 0.05 M Tris-HCl, pH 7.6, 5 mM CaCl2, 2.5 mM N-ethylmaleimide. Collagenase-sensitive protein per μg total protein was determined by incubation for 2 hours with 80 units/ml of collagenase, followed by addition of 10% TCA/0.5% tannic acid, and addition of the supernatant to scintillation fluid for standard scintillation counting in the tritium channel.

[5] = tested on: chondrocytes; experiment: Proteoglycan synthesis, [35S] labeling; conditions: 72 hours after addition; 0.025 mM antimycin A or non-lethal dose of oligomycin
Experimental: Proteoglycan synthesis was measured by [^35S]-labeling and uptake of the isotope, as well as by biosynthetic incorporation of the isotope (van Osch et al., Matrix Biol. 17:413–424, 1998) into proteoglycans extracted and subsequently purified by column chromatography on Sephadex® G-25 (Pharmacia, Piscataway, N.J.) (FIG. 3). Chondrocytes or TC28 cells (3×10^6) were plated in 30 ml of medium in a 10-cm diameter tissue culture dish and the medium was made 0.025 mM in antimycin (or 0.02 μg/ml oligomycin) every 24 hours for 72 hours. After 48 hours of culture, 20 μCi/ml of [^35S]sodium sulfate was added to each plate in serum-free medium. After a total of 72 hours, the medium was collected and the cells were washed once with phosphate buffered saline (PBS) and then scraped into 0.5 M NaOH and mixed for 48 hours at 4° C. The medium and the cell extract were eluted from Sephadex® (Pharmacia, Piscataway, N.J.) G-25M PD-10 columns with 4M guanidine-HCl. The eluted portion was added to scintillation fluid and counted (n=9 replicates in FIG. 3; *=P<0.05 by Student's t-test).

`CC[C@H]1/C=C/C=C/C[C@@H](C)[C@H](O)[C@@](C)(O)C(=O)[C@@H](C)[C@H](O)[C@@H](C)C(=O)[C@@H](C)[C@H](O)[C@@H](C)/C=C/C(=O)O[C@@H]2[C@H](C)[C@H](CC1)O[C@]1(CC[C@H](C)[C@H](C[C@@H](C)O)O1)[C@H]2C` [oligomycin] was tested, and the “depletion of intracellular ATP levels” value [1] was 50–80%, the “intracellular ATP levels (qualitative)” value [1] was “depressed intracellular ATP levels” and the “effect on TGFβ-induced increase of intracellular ATP” value [1] was “this effect was blocked”. For the same molecule, the loss of viability [2] was “less than 10%”, the “effect on level of glycolysis” value [3] was “without altering the constitutively high level of glycolysis” and the “depression of collagen synthesis” value [4] was “more than 50%”. For the same molecule, the “depression of proteoglycan synthesis” value [5] was “more than 50%”.

antimycin A was tested, and the “depletion of intracellular ATP levels” value [1] was 50–80%, the “intracellular ATP levels (qualitative)” value [1] was “depressed intracellular ATP levels” and the “effect on TGFβ-induced increase of intracellular ATP” value [1] was “this effect was blocked”. The loss of viability [2] was “less than 10%”, the “effect on level of glycolysis” value [3] was “without altering the constitutively high level of glycolysis” and the “depression of collagen synthesis” value [4] was “more than 50%”. The “depression of proteoglycan synthesis” value [5] was “more than 50%”.
